Assay results published in PubChem BioAssay (NCI).
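All cell lines were grown in 96-well plates and treated with compound for 48 hours. At the GI50, growth is halved. At the TGI there is no net growth.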

Columns and labels:
Experiment in all cases: NCI anticancer screen, dose series, 48 h
[1] = system: A549 NSCLC
[2] = system: NCI-H226 lung
[3] = system: NCI-H23 lung
[4] = system: OVCAR-5 ovarian
[5] = system: OVCAR-8 ovarian
[6] = system: SNB-75 CNS
[7] = system: U251 CNS

Row | SMILES | GI50 [1] [µM] | TGI [1] [µM] | GI50 [2] [µM] | TGI [2] [µM] | GI50 [3] [µM] | TGI [3] [µM] | GI50 [4] [µM] | TGI [4] [µM] | GI50 [5] [µM] | TGI [5] [µM] | GI50 [6] [µM] | TGI [6] [µM] | GI50 [7] [µM] | TGI [7] [µM]
1 | C=CC(=O)Nc1cc(Nc2ncc(C(=O)OC(C)C)c(-c3cn(C)c4ccccc34)n2)c(OC)cc1N(C)CCN(C)C | 2.89 | 21.5 | 7.45 | 29.5 | 9.02 | 25.3 | 2.72 | 18.1 | 4.85 | 25 | 1.93 | 10.3 | 3.98 | 12.2
2 | Nc1nc(-n2c(-c3ccccc3)nc3c(Br)cc(Br)cc3c2=O)nnc1-c1cccc(Cl)c1Cl | 7.41 | > 100 | 24.1 | > 100 | 15.7 | 53.1 | 6.22 | 50.9 | 17.2 | > 100 | 8.65 | 46.7 | 6.87 | 27.1
3 | O=C(CCNC12CC3CC(CC(C3)C1)C2)c1ccccc1 | – | > 100 | – | > 100 | – | 48.8 | – | 71.7 | – | 45 | – | 65.3 | – | 31.9
4 | COc1cc2c(c(OC)c1OC)-c1ccc(NNC(N)=S)c(=O)cc1[C@@H](NC(C)=O)CC2 | 3.12 | > 100 | – | > 100 | 0.414 | > 49.9 | 7.21 | > 100 | 0.863 | > 100 | – | > 100 | 0.415 | > 100
5 | OCCN(CCO)c1ncnc2c1ncn2Cc1ccc(CCl)cc1 | 18.3 | 53.7 | 23.4 | 58 | 18.3 | 37.1 | 14.1 | 27.8 | 15.4 | 31.7 | 20.3 | 40.9 | 15.7 | 29.8
6 | COc1ccc(CC2c3cc4c(cc3CCN2C)OCO4)c(C=O)c1OC (stereo not drawn) | – | > 100 | – | > 100 | – | > 100 | – | > 100 | – | > 100 | – | > 100 | – | > 100
7 | Fc1ccc(NC(=S)SCc2ccc3c(c2)OCO3)cc1F | – | 44.6 | – | > 100 | – | 51.6 | – | 46.3 | – | 35.9 | – | 66.8 | – | 43.1
8 | OC1CSSC1Cn1cnc2c(Nc3ccc(OCc4cccc(F)c4)c(Cl)c3)ncnc21 (stereo not drawn) | 0.742 | 1.88 | 3.38 | 12.8 | 0.689 | 1.73 | 3.83 | 10.2 | 3.71 | 12 | 4.16 | 8.8 | 0.712 | 1.43
9 | Cc1ccc(NC(=O)Nc2ccc(-c3cccnc3)cc2N2CCC(CO)CC2)cc1 | 3.18 | > 100 | 6.31 | > 100 | – | – | 3.64 | > 100 | 6.43 | > 100 | 1.26 | 5.03 | 2.02 | 6.81
10 | CC1CCc2nc[nH]c(=O)c21 (stereo not drawn) | > 100 | > 100 | > 100 | > 100 | > 100 | > 100 | > 100 | > 100 | > 100 | > 100 | > 100 | > 100 | – | –
11 | COc1cccc(C2c3cc4c(cc3OC(C)(N3CCCC3)C2C)OCO4)c1O (stereo not drawn) | – | 75 | – | 19.9 | – | 8.9 | – | 77.3 | – | 40 | – | 17.2 | – | 53.8
12 | Cc1ccc(CN2CCC(C(=O)Nc3ccc(-c4cc5ccccc5[nH]4)cc3)CC2)o1 | > 100 | > 100 | > 100 | > 100 | > 100 | > 100 | > 100 | > 100 | > 100 | > 100 | 12.7 | 33.1 | 21 | > 100
13 | CCOC1Oc2ccccc2C(=O)/C1=C/Nc1ccc(C(C)=O)cc1 (stereo not drawn) | 50.3 | > 100 | 26.7 | 68.1 | 13.9 | 36.2 | 19.5 | 48.3 | 16.3 | 45 | 40.6 | > 100 | 23.9 | 67.5
14 | COC(=O)/C=C1\S/C(=N\NC(=O)c2cc3ccc2/C=C\c2ccc(cc2)/C=C\3)N(c2ccccc2)C1=O | 2.83 | 8.37 | 4.38 | 25.5 | 1.95 | 4.15 | 1.92 | 3.84 | 3.08 | > 100 | 5.44 | > 100 | 1.89 | 4
15 | Cn1cc(C2=C(c3c4n(c5ccccc35)CCCCC4)C(=O)NC2=O)c2ccccc21 | 3.72 | > 25 | 12 | > 25 | 10.6 | > 25 | > 19.5 | > 25 | 10.7 | > 25 | 1.4 | 11.6 | 6.61 | > 25
16 | C=C(C)C(OC)C(O)CC1(C)CC(O)CC(C)(C2CCC3OC(C4(C)CCC(Br)C(C)(C)O4)CCC3(C)O2)O1 (stereo not drawn) | 21 | > 58 | 18.8 | 41.2 | 16 | 34.6 | 20.5 | 38.7 | 21.1 | 50.2 | 27.4 | > 61.5 | 25.5 | > 61.9
17 | C[N+](C)(C)CC(=O)N/N=C(/CC(=O)CC(C1=C(O)c2ccccc2OC1)c1ccccc1)C(=O)Nc1cccc(Cl)c1 (stereo not drawn) | – | > 100 | – | > 100 | – | > 100 | – | > 100 | – | > 100 | – | > 100 | – | > 100
18 | COc1cc2c(cc1OCCCCN1CCN(CC(=O)Nc3ccc(Cl)cc3C(=O)c3ccccc3Cl)CC1)N=CC1CCCN1C2=O (stereo not drawn) | – | – | 0.483 | 1.44 | 0.206 | 0.446 | 0.324 | 0.939 | 0.327 | 1.09 | 0.223 | 0.572 | 0.327 | 1.06
19 | CCN1/C(=C\c2cc[n+](CC)c3ccccc23)C=Cc2ccccc21 | 0.215 | 18.1 | 0.301 | 13.1 | 0.0871 | 7.56 | 0.611 | 13.8 | 0.23 | 13 | 0.169 | 0.871 | 0.119 | 12.7

Row | SMILES | GI50 [1] [µM] | TGI [1] [µM] | GI50 [2] [µM] | TGI [2] [µM] | GI50 [3] [µM] | TGI [3] [µM] | GI50 [4] [µM] | TGI [4] [µM] | GI50 [5] [µM] | TGI [5] [µM] | GI50 [6] [µM] | TGI [6] [µM] | GI50 [7] [µM] | TGI [7] [µM]
20 | COC1/C=C/OC2(C)Oc3c(C)c(O)c4c(O)c(c(/C=N/Nc5ccc([N+](=O)[O-])cc5[N+](=O)[O-])c(O)c4c3C2=O)NC(=O)C(C)=C/C=C/C(C)C(O)C(C)C(O)C(C)C(OC(C)=O)C1C (stereo not drawn) | 8.01 | 17.3 | 1.35 | 3.89 | 1.7 | 7.02 | 3.59 | 11.6 | 1.41 | 3.93 | 1.8 | 10.3 | 1.3 | 3.55
21 | CCC(=O)[C@H](C)[C@@H](OC(=O)[C@H](C)CC)[C@H](C)[C@H]1OC(CC)=C(C)C(=O)[C@@H]1C | 30.9 | > 100 | 16 | 31.6 | 19.6 | 92.4 | 15.4 | 48 | 42.4 | > 100 | 31.8 | 80.3 | 17.6 | 35.8
22 | CN1CCCCC1CCN1c2ccccc2Sc2ccc(Cl)cc21 (stereo not drawn) | 3.31 | 11.8 | 12.9 | 32.1 | 10.7 | 26.8 | 3.65 | 14 | 3.83 | 12.5 | 1.54 | 6.19 | 2.59 | 6.76
23 | O=C(Nc1ccc(F)cc1)Nc1ccc(Cl)c([N+](=O)[O-])c1 | 3.09 | 16.3 | 2.28 | 9.3 | 2.62 | 10.7 | 3.55 | 14.9 | 2.98 | 15.1 | 5.93 | > 100 | 3.19 | 12.5
24 | COc1cccc(-c2cc(-c3cccc(NS(C)(=O)=O)c3)nc(N)c2C#N)c1O | 0.293 | > 100 | 0.372 | > 100 | 0.341 | > 100 | 1.08 | > 100 | 0.351 | > 100 | 0.0797 | 5.15 | 0.127 | > 100
25 | C=CCO[C@H]1CO[C@H]2[C@@H]1OC[C@@H]2Oc1ccc(Nc2ccnc(Nc3ccc(O[C@H]4CO[C@H]5[C@@H]4OC[C@@H]5OCC=C)c(Cl)c3)n2)cc1Cl | 1.84 | 3.95 | 7.46 | 72.3 | 1.79 | 3.71 | 1.83 | 3.29 | 1.93 | 5.92 | 1.86 | 3.31 | 1.85 | 3.83
26 | Nc1ccccc1C#C/C=C\C#Cc1ccccc1OC(F)(F)F | 5.99 | > 100 | 14 | 40.3 | 6.44 | 80.2 | 13 | 44.1 | 6.7 | 47.2 | 2.47 | 7.85 | 5.44 | 22.2
27 | C=CCOc1ccc2c(C)cc(=O)oc2c1C | – | > 100 | – | > 100 | – | > 100 | – | > 100 | – | > 100 | – | > 100 | – | > 100
28 | COc1cc2c(c3oc4c(O)cccc4c(=O)c13)CC(C(C)(O)CO)O2 (stereo not drawn) | – | > 100 | – | > 100 | – | > 100 | – | > 100 | – | > 100 | – | – | – | > 100
29 | Cc1nc2sccn2c1-c1csc(Nc2ccccc2Cl)n1 | 2.98 | 44.4 | 3.38 | 45.1 | 2.28 | 35.4 | 9.58 | 75.1 | 6.05 | 45.2 | 4.08 | 60.3 | 3.7 | 24.1
30 | CO/C(=N\N=C\c1ccc(C(F)(F)F)cc1)c1ccncc1 | – | > 10 | – | > 10 | – | > 10 | – | > 10 | – | > 10 | – | – | – | > 10
31 | Cc1cc(-c2nc(C(=O)Nc3cc4oc(N5CCOCC5)nc4nc3N3CC[C@@H](O)C3)co2)ccn1 | 28.9 | > 100 | > 100 | > 100 | 28.1 | > 100 | > 100 | > 100 | 38.7 | > 100 | 9.41 | 69.2 | 74.3 | > 100
32 | O=C(Nc1ccc(-n2ccc3c(NC(=O)c4ccccc4)nccc32)cc1)c1ccc(Cl)c(C(F)(F)F)c1 | 0.318 | 8.45 | 6.17 | > 50 | 7.16 | > 32.9 | 3.84 | 27.3 | 0.528 | 15.9 | 0.625 | 16.5 | 0.095 | 5.3
33 | COC(=O)CC[N+]1=CCC(c2ccccc2)(c2ccccc2)O1 | – | > 100 | – | > 100 | – | > 100 | – | > 100 | – | > 100 | – | – | – | > 100
34 | FC(F)(F)c1cccc(Nc2nc(-c3ccccc3)nc3ncccc23)c1 | – | – | 6.25 | 35.6 | 5.03 | 28.4 | 13.2 | 90.4 | 3.74 | 18.2 | 7.85 | 31.3 | 3.52 | 14.7
35 | CCN(CC)N=Nc1c(C(N)=O)n[nH]c1C | – | > 100 | – | > 100 | – | > 100 | – | – | – | > 100 | – | > 100 | – | > 100
36 | CC(=O)OC1OC([C@@H]2c3cccc(O)c3C(=O)c3c(O)cc(C)cc32)C(O)C(O)C1O (stereo partly drawn) | 0.109 | 1.94 | 0.012 | 0.0806 | < 0.0199 | 0.216 | 0.0323 | 0.36 | 0.122 | 4 | – | – | < 0.0152 | 0.257
37 | NS(=O)(=O)c1ccc2c(c1)OCCOCCOCCOCCO2 | – | > 100 | – | > 100 | – | > 100 | – | – | – | > 100 | – | > 100 | – | –
